Tests used:
[1] = system: interleukin-6 (IL-6); assay: Experiment 1: blood cytokine (IL-6) in mice with Propionivacterium acnes / lipopolysaccharide induced hepatopathy; type: in vivo; settings: groups B (Brazilian licorice extract of Example 1, 25 mg), D (Chinese licorice extract of Comparative Example 1, 25 mg), F (prednisolone acetate 5 mg); i.p. four times; serum 2 h after LPS
Experimental: (§1) The following experiment was performed to examine the effects of inhibiting cytokine production and lowering GOT activity of the extracts obtained in Example 1 and Comparative Example 1. Male mice of ddy system (Japan SLC, Inc.), each of which weighs 18-20 g, are prepared for the experiment. […] 5 mg of Propionivacterium acnes suspension was injected into the vein of the aforementioned mice respectively, to cause hepatopathy. […] 10 μg of lipopolysaccharide was injected into the vein of the mice in all groups respectively, thirty minutes after the fourth injection in step II (as to the mice in group A, the injection was performed at the same timing as the mice in the other groups). Then, two hours later, blood was taken from all the mice to obtain serum. There was no visible change in weight and food and water consumption of the mice. From the serum obtained in step III, measurement of interleukin-6 (IL-6), which is a kind of cytokine, was performed. For the measurement, a commercially available measurement kit which adopts Fluorescence Linked immuno-Sorbent Assay using fluorescence labeling antibody was used. […] The measured values in Table 1 show IL-6 levels (unit: picogram) per 1 ml serum.

[2] = system: glutamic-oxaloacetic transaminase activity (GOT); assay: Experiment 1: blood GOT activity in mice with Propionivacterium acnes / lipopolysaccharide induced hepatopathy; type: in vivo; settings: groups B (Brazilian licorice extract, 25 mg), D (Chinese licorice extract, 25 mg), F (prednisolone acetate 5 mg); i.p. four times
Experimental: as §1, with “glutamic-oxaloacetic transaminase activity (GOT)” for “measurement of interleukin-6 (IL-6), which is a kind of cytokine,”, “measured.” for “performed.”, “Enzyme” for “Fluorescence”, “enzyme” for “fluorescence”, “Units.” for “The measured values in Table 1 show IL-6 levels (unit: picogram) per 1 ml serum.”

[3] = system: collagen induction arthritis model; assay: Experiment 2: collagen induction arthritis model, arthritis index; type: in vivo, mice; settings: 5 mg/head i.p. every other day
Experimental: Clinical symptoms of arthritis of mice in the respective groups were evaluated by one and the same observer using 6 rankings from zero to five (the larger the value is, the worse the symptom is), and the averages per the respective groups were calculated. These evaluations were performed in 0, 3rd, 4th, 5th, 6th, 7th and 8th week after the first immunity The results were shown in FIG. 3 and Table 3.

[4] = system: collagen induction arthritis model; assay: Experiment 2: collagen induction arthritis model, foot pad swelling (foot pad volume); type: in vivo, mice; settings: 5 mg/head i.p. every other day
Experimental: These evaluations were performed in 0, 3rd, 4th, 5th, 6th, 7th and 8th weeks after the first immunity. The values in FIG. 4 are relative values based on the initial hind foot pad volumes.

[5] = system: autoimmune encephalomyelitis model; assay: Experiment 3: autoimmune encephalomyelitis model, clinical score; type: in vivo, rats; settings: group R, 5 mg/Kg of body weight i.p. once a day for 12 days
[6] = Experiment 4: weight changes of rats in autoimmune encephalomyelitis model; type: in vivo; settings: 5 mg/Kg of body weight per injection
Experimental: The immunosuppressive effect of the BL. 1, BL. 2 and […].
The manner of experiment was basically the same as the aforementioned Experiment 3.
However, the number of groups of rats were reduced to five, one of which included the rats to which the BL. 1 was injected, another of which included the rats to which the BL. 2 was injected, another of which included the rats to which the BL. 3 was injected, another of which included the rats to which prednisolone acetate was injected, and another of which included the rats without injection.
The dose per one injection of BL. 1, BL. 2 and BL. 3 was 6 mg/head and in the form of physiological saline.
The dose per one injection of prednisolone acetate was 5 mg/Kg of body weight and in the form of physiological saline.

[7] = extracts of Example 2 / Comparative Example 2 6 and 12.5 mg/head, prednisolone acetate 5 mg/Kg, i.p. every other day, eight weeks
Experimental: DBJ/1J mice were used in the experiment. The mice are divided into six groups, namely, G, H, I, J, K and L, each consisting of six mice.
50 μl (200 μg/head) of the emulsion was then injected to the back neck skin of each of the mice under ether (first immunity).
Three weeks after the first immunity, 50 μl (200 μg/head) of the emulsion was injected to the tail head skin of each of the mice (second immunity).
Prednisolone acetate (produced by Shionogi & Co., Ltd.) which is a control drug was suspended by physiological saline so that the dosage is 5 mg/Kg of body weight, and the obtained suspended solution was injected into the abdominal cavity of each mouse in group L by 1 ml every other day after the first immunity.
The above injections were performed all through the test period (for eight weeks after the first immunity).
The weight of the mice in the respective groups were measured every day after the first immunity and the average weight per each of the groups was calculated.

CC(=O)OCC(=O)[C@@]1(O)CC[C@H]2[C@@H]3CCC4=CC(=O)C=C[C@]4(C)[C@H]3[C@@H](O)C[C@@]21C [prednisolone acetate]
blood IL-6 level, average of eight mice [1]: 26473 picogram per 1 ml serum
blood GOT activity level, average of eight mice [2]: 350.705 Kermen Units
arthritis index (ranking 0-5), group average ([3]; 3rd week): 0
arthritis index (ranking 0-5), group average ([3]; 4th week): 0
arthritis index (ranking 0-5), group average ([3]; 5th week): 0
arthritis index (ranking 0-5), group average ([3]; 6th week): 0
arthritis index (ranking 0-5), group average ([3]; 7th week): 0.125
arthritis index (ranking 0-5), group average ([3]; 8th week): 0.125
arthritis index (ranking 0-5), group average ([3]; Primary immunity): 0
hind foot pad volume, group average, relative to initial volume ([4]; 3rd week): 99.2
hind foot pad volume, group average, relative to initial volume ([4]; 4th week): 95.2
hind foot pad volume, group average, relative to initial volume ([4]; 5th week): 101.1
hind foot pad volume, group average, relative to initial volume ([4]; 6th week): 102.4
hind foot pad volume, group average, relative to initial volume ([4]; 7th week): 95.5
hind foot pad volume, group average, relative to initial volume ([4]; 8th week): 97.9
hind foot pad volume, group average, relative to initial volume ([4]; Primary immunity): 100
time at which a few rats developed encephalomyelitis [5]: 8-11 days after the injection of emulsion
weight increase compared to the other groups (FIG. 6, words) [6]: had the least increase
average weight of mice (FIG. 2) [7]: reduced significantly

— patent US6992068B2 (Gifu Shellac Mfg., Co., Ltd., priority 2000, dated 2006)
